Data reported in PubChem BioAssay (NCI).
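Grown in 96-well plates, cells were treated for 48 hours with each compound at five concentrations. Insufficient inhibition: endpoint recorded as highest concentration tested. Abbreviation: GI50, concentration required for 50% inhibition of growth. TGI denotes the concentration required for complete inhibition of growth.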

Tests used:
Test in all cases: DTP human tumour cell line panel, 48 h
UO-31 renal = test system: UO-31 renal
CAKI-1 renal = test system: CAKI-1 renal
HCC-2998 colon = test system: HCC-2998 colon
IGROV1 ovarian = test system: IGROV1 ovarian
U251 CNS = test system: U251 CNS
RXF 393 renal = test system: RXF 393 renal
HCT-15 colon = test system: HCT-15 colon
SN12C renal = test system: SN12C renal
NCI-H226 lung = test system: NCI-H226 lung
M14 melanoma = test system: M14 melanoma

SMILES: CCCCCCCCCCCCCC(=O)NO
- TGI (UO-31 renal): 25.3 µM
- TGI (CAKI-1 renal): 52.4 µM
- TGI (HCC-2998 colon): 28.7 µM
- TGI (IGROV1 ovarian): 38.3 µM
- TGI (U251 CNS): 33.8 µM
- TGI (RXF 393 renal): 19 µM
- TGI (HCT-15 colon): 26.2 µM
- TGI (SN12C renal): 38.9 µM
- TGI (NCI-H226 lung): 19 µM
- TGI (M14 melanoma): 36.2 µM

SMILES: CCN(CC)CCOc1ccc(NC(=O)C(C(C)C)N2C(=O)/C(=C/c3ccc(Br)cc3)SC2=S)cc1 (centres undefined)
- GI50 (UO-31 renal): 2.72 µM
- TGI (UO-31 renal): 12.6 µM
- GI50 (CAKI-1 renal): 4.38 µM
- TGI (CAKI-1 renal): 17.1 µM
- GI50 (HCC-2998 colon): 2.21 µM
- TGI (HCC-2998 colon): 5.13 µM
- GI50 (IGROV1 ovarian): 2.61 µM
- TGI (IGROV1 ovarian): 8.03 µM
- GI50 (U251 CNS): 1.94 µM
- TGI (U251 CNS): 4.08 µM
- GI50 (RXF 393 renal): 5.6 µM
- TGI (RXF 393 renal): 19.1 µM
- GI50 (HCT-15 colon): 2.01 µM
- TGI (HCT-15 colon): 4.31 µM
- GI50 (SN12C renal): 1.71 µM
- TGI (SN12C renal): 3.29 µM
- GI50 (NCI-H226 lung): 16.2 µM
- TGI (NCI-H226 lung): 37.3 µM
- GI50 (M14 melanoma): 2.07 µM
- TGI (M14 melanoma): 4.27 µM

SMILES: CC(/C=C1\CCC(CN(C)C)C1=O)c1cccc(Br)c1 (centres undefined)
- TGI (UO-31 renal): 33.2 µM
- TGI (CAKI-1 renal): 21.1 µM
- TGI (HCC-2998 colon): 35.9 µM
- TGI (IGROV1 ovarian): 19.4 µM
- TGI (U251 CNS): 32.4 µM
- TGI (RXF 393 renal): 26.5 µM
- TGI (HCT-15 colon): 34 µM
- TGI (SN12C renal): 43.3 µM
- TGI (NCI-H226 lung): 48.8 µM
- TGI (M14 melanoma): 29.2 µM

SMILES: O=C(CC1(O)C(=O)Nc2c(Cl)cc(Cl)cc21)c1ccc([N+](=O)[O-])cc1 (centres undefined)
- TGI (UO-31 renal): 35.1 µM
- TGI (CAKI-1 renal): > 100 µM
- TGI (HCC-2998 colon): > 100 µM
- TGI (IGROV1 ovarian): > 90.6 µM
- TGI (U251 CNS): > 100 µM
- TGI (RXF 393 renal): > 100 µM
- TGI (HCT-15 colon): > 100 µM
- TGI (SN12C renal): > 68 µM
- TGI (NCI-H226 lung): > 73.3 µM
- TGI (M14 melanoma): > 55.7 µM

SMILES: Cl.[O-]c1cccc2cccnc12.[O-]c1cccc2cccnc12.[O-]c1cccc2cccnc12.[O-]c1cccc2cccnc12.[Ti+4]
- GI50 (UO-31 renal): 5.59 µM
- TGI (UO-31 renal): > 100 µM
- GI50 (CAKI-1 renal): 1.61 µM
- TGI (CAKI-1 renal): > 100 µM
- GI50 (HCC-2998 colon): 2.1 µM
- TGI (HCC-2998 colon): 4.5 µM
- TGI (IGROV1 ovarian): 2.92 µM
- GI50 (U251 CNS): 2.53 µM
- TGI (U251 CNS): 30.5 µM
- GI50 (RXF 393 renal): 0.319 µM
- TGI (RXF 393 renal): 2.13 µM
- GI50 (HCT-15 colon): 0.354 µM
- TGI (HCT-15 colon): 7.06 µM
- GI50 (SN12C renal): 2.74 µM
- TGI (SN12C renal): > 91.1 µM
- GI50 (NCI-H226 lung): 7.9 µM
- TGI (NCI-H226 lung): > 89.9 µM
- GI50 (M14 melanoma): 0.994 µM
- TGI (M14 melanoma): 17.8 µM

SMILES: C=C1CCCC2OC(OC)CCC12 (centres undefined)
- TGI (UO-31 renal): > 100 µM
- TGI (CAKI-1 renal): > 100 µM
- TGI (HCC-2998 colon): > 100 µM
- TGI (IGROV1 ovarian): > 100 µM
- TGI (U251 CNS): > 100 µM
- TGI (RXF 393 renal): > 100 µM
- TGI (HCT-15 colon): > 100 µM
- TGI (SN12C renal): > 100 µM
- TGI (NCI-H226 lung): > 100 µM
- TGI (M14 melanoma): > 100 µM

SMILES: O=[N+]([O-])c1cc(C(F)(F)F)cc2n[se]nc12
- TGI (UO-31 renal): 14.1 µM
- TGI (CAKI-1 renal): 9 µM
- TGI (HCC-2998 colon): 10.2 µM
- TGI (IGROV1 ovarian): 14.6 µM
- TGI (U251 CNS): 29.5 µM
- TGI (RXF 393 renal): 4.91 µM
- TGI (HCT-15 colon): 5.59 µM
- TGI (SN12C renal): 10.6 µM
- TGI (NCI-H226 lung): 46.8 µM
- TGI (M14 melanoma): 3.22 µM

SMILES: CCN(CC)CCNc1ccc(N=Nc2cnc3ccccc3c2)c2ccccc12
- GI50 (UO-31 renal): 1.51 µM
- TGI (UO-31 renal): 3.05 µM
- GI50 (CAKI-1 renal): 1.39 µM
- TGI (CAKI-1 renal): 3.21 µM
- GI50 (HCC-2998 colon): 1.75 µM
- TGI (HCC-2998 colon): 3.16 µM
- GI50 (IGROV1 ovarian): 1.67 µM
- TGI (IGROV1 ovarian): 3.77 µM
- GI50 (U251 CNS): 1.7 µM
- TGI (U251 CNS): 3.2 µM
- GI50 (RXF 393 renal): 1.88 µM
- TGI (RXF 393 renal): 4.05 µM
- GI50 (HCT-15 colon): 1.47 µM
- TGI (HCT-15 colon): 2.93 µM
- GI50 (SN12C renal): 1.64 µM
- TGI (SN12C renal): 3.16 µM
- GI50 (NCI-H226 lung): 1.71 µM
- TGI (NCI-H226 lung): 3.66 µM
- GI50 (M14 melanoma): 1.79 µM
- TGI (M14 melanoma): 3.29 µM
